Residue numbers refer to the chain shown, from its start.
What was measured:
Type in all cases: binding, mASH1L
ASH1L PHD Q2590E = molecular target: T1, ASH1L PHD Q2590E (Mus musculus, UniProt Q99MY8, Q2590E); test: ITC, ASH1L PHD mutant Q2590E; details: 1.5 mM H3 (1–15) peptide, 25°C, pH 7.2, 1×PBS, 100-μM ZnCl2
T1 construct: The mASH1L PHD domain (residue 2573–2624); MBP (cleaved yes); made in house; host or cells: Escherichia coli BL21 (DE3)
T1 sequence (Q99MY8 2573-2624 Q2590E): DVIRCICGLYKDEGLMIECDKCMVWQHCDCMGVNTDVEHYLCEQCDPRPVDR
Source text: (§1) The mASH1L PHD domain (residue 2573–2624) was subcloned into a modified pMAL-c5X expression vector (New England Biolabs, Ipswich, MA, US), which contains an MBP tag and a TEV cleavage site. The site-directed mutagenesis of D2573A, I2575A, D2584E, E2585A, M2588A, Q2590E, and W2597A in the PHD domain was generated using the PfuTurbo DNA polymerase (Agilent Technologies) and Dpn I restriction enzyme (New England Biolabs). After the MBP tag was cut by TEV, these proteins were used in ITC and NMR experiments. The His-tagged PHD domain was subcloned into a pGEX-4T1 expression vector. The base vector has a GST tag and was engineered to include a TEV cleavage site before a 5′ 6×His sequence. After the GST tag was cut, this protein was used for the peptide array assay. The His-tagged Bromo-PHD tandem domain (residue 2425–2627) of mASH1L was subcloned into a pNIC-Bsa4 expression vector, which contains a His tag. […]
(§2) The bacteria were grown in Luria Broth (LB) media, supplemented with 100-μM ZnCl2 (all PHD constructs). […] The size and purity of the purified protein were monitored by SDS-PAGE. The PHD protein was concentrated with a filter tube (Millipore, Co. Cork, Ireland) and measured by UV absorbance at 280 nm. […]

ASH1L PHD W2597A = molecular target: T2, ASH1L PHD W2597A (Mus musculus, UniProt Q99MY8, W2597A); test: ITC, ASH1L PHD mutant W2597A; details: 1.5 mM H3 (1–15) peptide, 25°C, pH 7.2, 1×PBS, 100-μM ZnCl2
T2 construct: The mASH1L PHD domain (residue 2573–2624); MBP (cleaved yes); made in house; host or cells: Escherichia coli BL21 (DE3)
T2 sequence (Q99MY8 2573-2624 W2597A): T1 sequence (Q99MY8 2573-2624 Q2590E) with E18Q, W25A
Source text: as §1, §2

ASH1L PHD finger [1] = molecular target: T3, ASH1L PHD finger (Mus musculus, UniProt Q99MY8); test: NMR titration, KD estimation; details: 100 μM PHD, peptide 25-2,000 μM, 298 K, 1×PBS, pH 7.2, 100-μM ZnCl2; single-site model; mean ± SEM; H3 (1–15) peptides
T3 construct: The mASH1L PHD domain (residue 2573–2624); MBP (cleaved yes); made in house; host or cells: Escherichia coli BL21 (DE3)
Source text: as §1, with “sequence.” for “sequence. After the GST tag was cut, this protein was used for the peptide array assay. The His-tagged Bromo-PHD tandem domain (residue 2425–2627) of mASH1L was subcloned into a pNIC-Bsa4 expression vector, which contains a His tag.”
The bacteria were grown in Luria Broth (LB) media, supplemented with 100-μM ZnCl2 (all PHD constructs). […] The size and purity of the purified protein were monitored by SDS-PAGE. The PHD protein was concentrated with a filter tube (Millipore, Co. Cork, Ireland) and measured by UV absorbance at 280 nm.
The ^1H,^15N HSQC spectra of the ^15N-labeled PHD finger were collected at 298 K on a Bruker 800-MHz NMR spectrometer equipped with the z-gradient triple-resonance cryoprobe. The binding was analyzed through monitoring chemical shift perturbations observed in the two-dimensional ^1H,^15N HSQC spectra of PHD finger upon the addition of H3 (aa 1-15) peptides (H3K4me, H3K4me2, H3K4me3). […]

ASH1L PHD M2588A = molecular target: T4, ASH1L PHD M2588A (Mus musculus, UniProt Q99MY8, M2588A); test: ITC, ASH1L PHD mutant M2588A; details: 1.5 mM H3 (1–15) peptide, 25°C, pH 7.2, 1×PBS, 100-μM ZnCl2
T4 construct: The mASH1L PHD domain (residue 2573–2624); MBP (cleaved yes); made in house; host or cells: Escherichia coli BL21 (DE3)
T4 sequence (Q99MY8 2573-2624 M2588A): T1 sequence (Q99MY8 2573-2624 Q2590E) with M16A, E18Q
Source text: as §1, §2

ASH1L PHD finger [2] = molecular target: T3, ASH1L PHD finger; test: ITC, ASH1L PHD finger with H3 peptides; details: MicroCal iTC200, 25°C, 1×PBS, 100-μM ZnCl2, pH 7.2; 100 µM protein titrated with 3 mM peptide; H3 (1–15) peptides, H3 (2–16) K9me2, H3 (29–43) K36me2
Experimental: The bacteria were grown in Luria Broth (LB) media, supplemented with 100-μM ZnCl2 (all PHD constructs). All PHD domains were expressed in Escherichia coli BL21 (DE3) cells and induced overnight with 0.5-mM isopropyl-β-D-1-thiogalactopyranoside (IPTG) at 22°C. In addition, the cells were harvested by centrifugation at 4,000 g. The harvested cells with MBP-tagged PHD were resuspended in buffer containing 25-mM Tris, pH 7.2, 1-M NaCl, 20-mM β-mercaptoethanol, 100-μM ZnCl2, and the Complete EDTA-free Protease Inhibitor (Roche, Mannheim, Germany). Following lysis in a microfluidizer (MFIC), cell debris was removed by centrifugation at 12,000 g for 1 h and the supernatant was loaded on a 5-ml MBPTrap HP column (GE Healthcare). The binding protein was eluted with buffer containing 25-mM Tris, pH 7.2, 500-mM NaCl, 20-mM β-mercaptoethanol, 20-mM maltose, and 100-μM ZnCl2. After TEV cleavage, the PHD domain was supplemented with 20-mM DTT and further purified using a Superdex 75 column (GE Healthcare, Uppsala, Sweden) in a final buffer containing 1×PBS, pH 7.2, 100- μM ZnCl2. […] The PHD protein was concentrated with a filter tube (Millipore, Co. Cork, Ireland) and measured by UV absorbance at 280 nm.
ITC assays were carried out on the MicroCal iTC200 System (Malvern) at 25°C while stirring at 750 rpm in the ITC buffer of pH 7.2, consisting of 1×PBS, 100-μM ZnCl2. […] The PHD or tandem Bromo-PHD protein sample of 100 µM was placed in the cell and titrated with 3 mM of a different peptide solution in the ITC buffer using a set of 31 injections of 1.2 μl, following a single initial injection of 0.2 μl. In the ITC measurements of PHD mutant samples, the H3 (1–15) peptides were diluted to the final concentrations of 1.5 mM, titrated with a single initial injection of 0.4 μl and followed with a set of 19 injections of 2 μl. Cumulative enthalpy exchange plots were derived from the raw thermal changes, using one set of a site-fitting model.

Kd (ASH1L PHD Q2590E): 33 ± 8 µM | Kd (ASH1L PHD W2597A): > 200 µM | Kd (ASH1L PHD finger [1]): 106 ± 6 µM | Kd (ASH1L PHD M2588A): > 200 µM | Kd (ASH1L PHD finger [2]): 64 ± 4 µM
Structure (SMILES): C[C@H](N)C(=O)N[C@@H](CCCNC(=N)N)C(=O)N[C@H](C(=O)N[C@@H](CCCC[N+](C)(C)C)C(=O)N[C@@H](CCC(N)=O)C(=O)N[C@H](C(=O)N[C@@H](C)C(=O)N[C@@H](CCCNC(=N)N)C(=O)N[C@@H](CCCCN)C(=O)N[C@@H](CO)C(=O)N[C@H](C(=O)NCC(=O)NCC(=O)N[C@@H](CCCCN)C(=O)N[C@@H](C)C(=O)O)[C@@H](C)O)[C@@H](C)O)[C@@H](C)O [H3K4me3]

Reference: publication PMC9399681, “Structural insight into ASH1L PHD finger recognizing methylated histone H3K4 and promoting cell growth in prostate cancer” (Frontiers in Oncology, 2022)
